Data from patent US20100247491A1, “Potentiation of Stem Cell Homing and Treatment of Organ Dysfunction or Organ Failure” (priority 2007, published 2010).

Experiments:
MSCs = test: MSC migration towards SDF-1 in a transwell culture system; type: cell-based, Fisher 344 rats; conditions: pre-incubation of MSCs with the agent, FIG. 7
Text: AMD 3100 is a non-peptide antagonist of CXCR4 and Diprotin A (Ile-Pro-Ile, Peptides International, Louisville, Ky.) is a commonly used example of a CD26 inhibitor. […] Thus, the invention provides for the use of a CD26 inhibitor for the treatment of renal organ dysfunction (i.e., damage or injury), particularly, in combination with the use of MSCs. For example, it is believed that inhibition of SDF-1 inactivation will increase the homing of administered MSCs to an injured kidney and potentiate renal repair.
Bone marrow-derived MSCs from Fisher 344 rats were used for in vitro experiments. […] In addition, cultured MSCs express functional CD26 and can effectively inactivate SDF-1. […] As a result of the in vitro data, it is reasoned that inhibiting CD26 will augment the SDF-1-CXCR4 mediated chemotactic activity of MSCs in vivo. Thus, the invention relates to pre-treatment or co-administration of MSCs with a CD26 inhibitor to augment the homing and renal protective functions of MSCs administered to a subject to treat a disease involving organ failure or organ dysfunction.

rats with I/R ARF = test: I/R ARF rat model, CD26 inhibitor given before MSCs (Example II); type: in vivo; conditions: MSCs following Diprotin A
Text: All procedures involving animals are approved by the respective Institutional Animal Care and Use Committees of the University of Utah, Veterans Affairs Medical Center (Salt Lake City, Utah), Indiana University (Indianapolis, Ind.), and the University of Hamburg (Hamburg, Germany). Animals are housed at a constant temperature and humidity, with a 12:12-h light-dark cycle, and have unrestricted access to a standard diet and tap water. Adult male Sprague-Dawley (SD) and Fisher 344 (F344) rats weighing 200-300 g are preferably used (Charles River, Wilmington, Mass.).
I/R ARF is induced in isoflurane-anesthetized animals, and rectal temperature is maintained at 37° C. After a midabdominal laparatomy, kidneys are exposed and renal pedicles are clamped with atraumatic vascular clamps for about 40 min. […]
Quantification of cell numbers. CFDA-labeled green fluorescing cells are examined and quantified in kidneys at 2, 24, 36, 48, 60, and/or 72 h after ARF and cell infusions. Nuclei are stained with either Hoechst 33342 or propidium iodide, and nuclei are counted in at least three high-power fields (HPF) per section based on a calibrated confocal micrometer measurement bar. After this, total cell numbers of the studied tissue sections are calculated based on the number of nuclei and surface area of the section.
Renal function may be assessed by serum creatinine and/or blood urea nitrogen levels. […]

Sca-1+lin-donor cells = conditions: donor cells treated with 5 mM Diprotin A for 15 minutes before transplant; FIG. 4, Christopherson II et al. (2004); cited from earlier work

Compound | MSC migration towards SDF-1 (MSCs) | renal function (serum creatinine and/or blood urea nitrogen) (rats with I/R ARF; by at least days 2 and/or 3, relative to MSC only treated animals) | migration of MSCs to the kidney (rats with I/R ARF; relative to MSC only treated animals) | homing of HSCs from the circulation to bone (Sca-1+lin-donor cells)
c1cc(CN2CCCNCCNCCCNCC2)ccc1CN1CCCNCCNCCCNCC1 [AMD 3100] | decreased | – | – | –
H-Ile-Pro-Ile-OH [Diprotin A] | significantly increased | significantly improved renal function | increased migration of MSCs to the kidney | can increase homing of HSCs
